What was measured:
[1] = format: physicochemical; conditions: pH 7
Source text: Creatine Formulation: A solution of surfactants was made by combining soy lecithin with 48-98% acetone insolubility (3.1 to 9.9 g/100 g as in dispersion or 9.2 to 16.9 g/100 g as in powder) in water (pH 7.0), with maltodextrin MD040 (Maltrin®, Grain Processing Corporation, 4.9-10.2 g/100 g as in dispersion or 12.4-17.7 g/100 g as in powder). Then the micronized (200 Mesh size or 70-80 μm) creatine monohydrate (23.7-40.2 g/100 g as in dispersion or 65.2-79.3 g/100 g as in powder), along with Alpha cyclodextrin (Cavamax®, Wacker Chemie AG, 0-0.26 g/100 g as in dispersion or 0-0.4 g/100 g as in powder), was added to the above solution of surfactants. After premixing the dispersion, it was run through the homogenizer at 500 psi/34 bar, 1 pass. The dispersion thus formed was heated to a pasteurization temperature of 72° C., for 30 min. Finally, this dispersion was spray dried, with TInlet=220-230° C. and TOutlet=92-100° C. Creatine shelf stability was evaluated at pH 3.3-7.0.
For the shelf-stability study, the corresponding spray-dried powders produced from the slurry were used for determining the chemical stability of limited-solubility organic compounds either in a neutral pH (6.8-7.0) drink or an acidic pH (3.3-3.7) drink formula. For this determination, the limited-solubility organic compound-containing beverages were prepared at their respective pHs, using spray-dried powder. […]

[2] = individuals who have high cholesterol; cited from earlier work

Row | SMILES | creatine degradation curve (y=% creatine levels, after (x) number of days) [1] | reduction of cholesterol [2]
1 | CN(CC(=O)O)C(=N)N.O [creatine monohydrate] | y=48.294e^−0.024x | –
2 | CN(CC(=O)O)C(=N)N [creatine] | – | up to 15%
